According to patent publication US11524073B2, “Anti-human ADRB3 monoclonal antibody and application thereof in disease diagnosis and treatment” (priority 2017, dated 2022):

System: Human glioma cells U87
Assay: Glioma treatment in nude mice
Assay type: in vivo
Method: Human glioma cells U87 were subcutaneously transplanted into the back of nude mice of 6 weeks old, which were used as the tumor model after tumor formation. In the experiment, the mice were divided into 4 groups with 8 mice in each group: normal control group, model control group, ADRB3 antibody treatment group, Gemcitabine and CD40 antibody combined treatment group. The ADRB3 antibody treatment group was intraperitoneally injected with 0.1 mg of ADRB3 antibody once every 5 days for a total of 6 weeks. The model control group was intraperitoneally injected with equivalent amount of normal saline.

## Nc1ccn([C@@H]2O[C@H](CO)[C@@H](O)C2(F)F)c(=O)n1 [Gemcitabine]
  metastatic lesion in the lung: some metastases are found
